Read-outs that look alike come from different tables or passages of the source.
What was measured:
[1] = biological target: T1, soluble guanylate cyclase (sGC) (Homo sapiens (Human), UniProt Q02108+Q02153); experiment: sGC-HEK-cGMP assay run in the absence of SNP (HEK WC assay); format: cell-based; conditions: compound at 30 μM, absence of SNP
Procedure: Human embryonic kidney cells (HEK293), endogenously expressing soluble guanylate cyclase (sGC), were used to evaluate the activity of test compounds. Compounds stimulating the sGC receptor should cause an increase in the intracellular concentration of cGMP. HEK 293 cells were seeded in Dulbecco's Modification of Eagle's Medium supplemented with fetal bovine serum (10% final) and L-glutamine (2 mM final) in a 200 μL volume at a density of 1×10^5 cells/well in a poly-D-lysine coated 96 well flat bottom plate and grown overnight at 37° C. Medium was aspirated and cells were washed with 1× Hank's Buffered Saline Salt Solution (200 μL). Cells were then incubated for 15 minutes at 37° C. with 0.5 mM 3-isobutyl-1-methylxanthine (200 μL). Test article was then added to the assay mixture (2 μL) and incubated at 37° C. for 10 minutes. After the 10 minute incubation, the assay mixture was aspirated and 0.1M HCl (200 μL) was added to the cells. The plate was incubated at 4° C. for 30 minutes in the 0.1M HCl to stop the reaction and lysed the cells. The plates were then centrifuged at 1,200 g for 5 minutes at room temperature. Supernatants were collected and transferred to a new flat bottom 96 well plate for analysis. Vehicle controls were carried out using DMSO (1%). A known sGC stimulator, BAY 41-2272, was used as the positive control. Samples were diluted with an equal volume of 1 M Ammonium Acetate (pH 7) to neutralize samples for better chromatography. A 2× cGMP standard curve was prepared in 0.1 M HCl and then diluted with an equal volume of 1 M Ammonium Acetate, with the following final concentrations in nM: 1024, 512, 256, 128, 64, 32, 16, 8, 4, 2, 1. cGMP concentrations were determined from each sample using the LC/MS conditions (Table 2 below) and calculated standard curve. EC50 values were calculated from concentration-response curves generated with GraphPad Prism Software.

[2] = biological target: T1, soluble guanylate cyclase (sGC); experiment: sGC-HEK-cGMP assay run with SNP incubation (HEK WC assay); format: cell-based; conditions: for HEK WC Assay (fold increase at 30 μM in the presence of 10 μM SNP): compound at 30 μM; for EC50: in the presence of 10 uM SNP; for Emax at 10 µM: read-out: HEK WC Assay (% Emax at 10 μM/with 10 uM SNP); for Emax at 30 µM: read-out: HEK WC Assay (% Emax at 30 μM/with 10 uM SNP)
In short: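 HEK293 cells with endogenous sGC were pretreated with 0.5 mM IBMX for 15 min at 37 °C, then exposed to test compound plus sodium nitroprusside for 10 min at 37 °C.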

[3] = read-out: HEK WC Assay (% Emax at 10 μM with 10 uM SNP)
[4] = read-out: HEK WC Assay (% Emax at 30 μM with 10 uM SNP)
[5] = read-out: HEK WC Assay (% Emax at 1 μM with 10 uM SNP)

T1 sequence (Q02153 whole entry): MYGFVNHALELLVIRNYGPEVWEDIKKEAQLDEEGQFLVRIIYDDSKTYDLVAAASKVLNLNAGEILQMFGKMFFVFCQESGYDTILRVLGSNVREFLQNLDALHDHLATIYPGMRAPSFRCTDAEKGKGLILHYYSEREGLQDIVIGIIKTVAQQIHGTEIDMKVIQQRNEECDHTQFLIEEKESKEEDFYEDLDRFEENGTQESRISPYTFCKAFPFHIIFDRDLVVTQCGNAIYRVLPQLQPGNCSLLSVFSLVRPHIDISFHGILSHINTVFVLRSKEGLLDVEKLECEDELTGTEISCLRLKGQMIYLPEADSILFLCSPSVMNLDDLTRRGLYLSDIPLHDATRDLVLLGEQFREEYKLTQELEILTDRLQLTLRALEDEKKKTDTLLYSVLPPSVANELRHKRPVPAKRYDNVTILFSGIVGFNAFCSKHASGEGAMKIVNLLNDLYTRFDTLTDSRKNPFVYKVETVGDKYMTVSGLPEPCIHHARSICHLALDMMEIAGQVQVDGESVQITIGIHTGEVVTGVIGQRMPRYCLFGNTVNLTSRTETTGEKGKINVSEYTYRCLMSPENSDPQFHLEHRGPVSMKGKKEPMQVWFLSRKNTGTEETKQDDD
T1 sequence (Q02108 whole entry): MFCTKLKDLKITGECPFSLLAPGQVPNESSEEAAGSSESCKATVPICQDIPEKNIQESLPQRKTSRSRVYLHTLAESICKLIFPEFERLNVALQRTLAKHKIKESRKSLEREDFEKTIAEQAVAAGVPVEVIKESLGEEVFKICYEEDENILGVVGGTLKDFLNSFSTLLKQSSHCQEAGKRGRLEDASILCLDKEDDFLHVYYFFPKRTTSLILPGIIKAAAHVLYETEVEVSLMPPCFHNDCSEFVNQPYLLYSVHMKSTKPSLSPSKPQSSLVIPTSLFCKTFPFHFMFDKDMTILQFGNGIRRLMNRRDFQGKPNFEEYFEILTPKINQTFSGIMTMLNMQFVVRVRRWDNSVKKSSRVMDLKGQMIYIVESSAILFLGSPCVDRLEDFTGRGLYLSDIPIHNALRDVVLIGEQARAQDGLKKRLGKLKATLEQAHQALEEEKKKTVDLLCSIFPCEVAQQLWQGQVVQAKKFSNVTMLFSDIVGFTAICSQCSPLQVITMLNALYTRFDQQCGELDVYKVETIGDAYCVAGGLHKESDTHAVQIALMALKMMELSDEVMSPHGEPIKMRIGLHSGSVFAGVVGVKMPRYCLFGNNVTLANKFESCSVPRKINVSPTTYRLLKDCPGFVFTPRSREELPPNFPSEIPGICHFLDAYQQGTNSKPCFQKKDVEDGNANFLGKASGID

HEK WC Assay (fold increase at 30 μM in the absence of SNP) [1] | HEK WC Assay (fold increase at 30 μM in the presence of 10 μM SNP) [2] | EC50 [2] [µM] | Emax [2, 3] [%] | Emax [2, 4] [%] | Emax [2, 5] [%] | Emax at 10 µM [2] [%] | Emax at 30 µM [2] [%] | SMILES
C (C = 2 to <5 fold increase) | D (D = 5 to <10 fold increase) | 100 to 300 | 40 to 60 | 10 to 20 | 0 to 10 |  |  | COc1cnc(-c2cc(-c3ccon3)n(Cc3ccccc3F)n2)nc1N [Compound I-173]
D (D = 5 to <10 fold increase) | E (E = 10 to <20 fold increase) | 20 to 40 | 40 to 60 | 40 to 60 | 20 to 40 |  |  | Nc1nc(-c2cc(-c3ccon3)n(Cc3ccccc3F)n2)ncc1NC(=O)C(F)(F)c1ccccc1 [Compound I-244]
E (E = 10 to <20 fold increase) | F (F = 20 to <30 fold increase) | < 20 | 80 to 100 | 80 to 100 | 80 to 100 |  |  | Nc1nc(-c2cc(-c3ccon3)n(Cc3ccccc3F)n2)ncc1NC(=O)c1cccc(C(F)(F)F)c1 [Compound I-215]
D (D = 5 to <10 fold increase) | E (E = 10 to <20 fold increase) | 20 to 40 | 60 to 80 | 40 to 60 |  |  |  | O=c1[nH]c2cnc(-c3cc(-c4ccon4)n(Cc4ccccc4F)n3)nc2[nH]1 [Compound I-281]
C (C = 2 to <5 fold increase) | D (D = 5 to <10 fold increase) |  | 10 to 20 | 10 to 20 |  | 0 to 10 | 0 to 10 | COc1ccc(CNc2nc(-c3cc(-c4ccon4)n(Cc4ccccc4F)n3)ncc2C(C)(C)O)cc1 [Compound I-135]
B (B = 1 to <2 fold increase) | B (B = 1 to <2 fold increase) |  | 0 to 10 | 0 to 10 |  | 20 to 40 | 40 to 60 | CCOC(=O)c1cnc(-c2cc(-c3ccon3)n(Cc3ccccc3F)n2)nc1NCc1ccc(OC)cc1 [Compound I-134]
C (C = 2 to <5 fold increase) | E (E = 10 to <20 fold increase) | 20 to 40 | 40 to 60 | 40 to 60 | 10 to 20 |  |  | Oc1nc(-c2cc(-c3ncco3)n(Cc3ccccc3F)n2)ncc1F [Compound I-197]
D (D = 5 to <10 fold increase) | E (E = 10 to <20 fold increase) | < 20 | 40 to 60 | 40 to 60 | 20 to 40 |  |  | Oc1nc(-c2cc(-c3ccon3)n(Cc3ccccc3F)n2)ncc1Br [Compound I-192]
B (B = 1 to <2 fold increase) | D (D = 5 to <10 fold increase) | 60 to 100 | 10 to 20 | 20 to 40 | 0 to 10 |  |  | Cc1nc(-c2cc(-c3ccon3)n(Cc3ccccc3F)n2)nc(O)c1F [Compound I-203]
C (C = 2 to <5 fold increase) | E (E = 10 to <20 fold increase) | < 20 | 60 to 80 | 60 to 80 | 20 to 40 |  |  | CC(C)(C(=O)Nc1cnc(-c2cc(-c3ccon3)n(Cc3ccccc3F)n2)nc1N)c1ccccc1 [Compound I-236]

Continued, compound first:

SMILES | HEK WC Assay (fold increase at 30 μM in the absence of SNP) [1] | HEK WC Assay (fold increase at 30 μM in the presence of 10 μM SNP) [2] | EC50 [2] [µM] | Emax [2, 3] [%] | Emax [2, 4] [%] | Emax [2, 5] [%] | Emax at 10 µM [2] [%] | Emax at 30 µM [2] [%]
Fc1ccccc1Cn1nc(-c2ncccn2)cc1-c1ccco1 [Compound I-306] | D (D = 5 to <10 fold increase) | E (E = 10 to <20 fold increase) | < 20 | 20 to 40 | 40 to 60 |  |  | 
Fc1ccccc1Cn1nc(-c2ncccn2)cc1C1CCC1 [Compound I-307] | C (C = 2 to <5 fold increase) | C (C = 2 to <5 fold increase) |  | 0 to 10 | 0 to 10 |  |  | 
Fc1ccccc1Cn1nc(-c2ncccn2)cc1C1=NCCO1 [Compound I-290] | B (B = 1 to <2 fold increase) | C (C = 2 to <5 fold increase) |  | 10 to 20 | 20 to 40 |  |  | 
Fc1ccccc1Cn1nc(-c2cccc(Br)n2)cc1-c1ccccn1 [Compound I-308, 2-Bromo-6-(1-(2-fluorobenzyl)-5-(pyridin-2-yl)-1H-pyrazol-3-yl)pyridine] | B (B = 1 to <2 fold increase) | B (B = 1 to <2 fold increase) |  | 0 to 10 | 0 to 10 |  |  | 
O=C(Nc1cnc(-c2cc(-c3ncco3)n(Cc3ccccc3F)n2)nc1O)c1ccccc1 [Compound I-159] | B (B = 1 to <2 fold increase) | D (D = 5 to <10 fold increase) |  | 20 to 40 | 20 to 40 |  |  | 
CO[C@@](C(=O)Nc1cnc(-c2cc(-c3ccon3)n(Cc3ccccc3F)n2)nc1N)(c1ccccc1)C(F)(F)F [Compound I-229] | C (C = 2 to <5 fold increase) | E (E = 10 to <20 fold increase) | 20 to 40 | 40 to 60 | 20 to 40 | 20 to 40 |  | 
CC(C)(C)C(=O)Nc1cnc(-c2cc(-c3ncco3)n(Cc3ccccc3F)n2)nc1N [Compound I-191] | C (C = 2 to <5 fold increase) | E (E = 10 to <20 fold increase) | < 20 | 40 to 60 | 80 to 100 | 20 to 40 |  | 
c1cnc(-c2cc(-c3ccon3)n(Cc3cscn3)n2)nc1 [Compound I-204] | B (B = 1 to <2 fold increase) | C (C = 2 to <5 fold increase) |  | 0 to 10 | 0 to 10 | 0 to 10 |  | 

— patent US10189809B2, “SGC stimulators” (Ironwood Pharmaceuticals, Inc., priority 2010, dated 2019)
